In patent US8889595B2, “Herbicides” (Syngenta Participations AG, priority 2008, dated 2014):

Key:
Assay type in all cases: in vivo
[1] = tested on: Echinochloa crus-galli (ECHCG); assay: Pre-emergence herbicidal activity, glasshouse; conditions: pre-emergence spray after one day cultivation; rate 250 g/ha; evaluated after 13 days; 100=total damage to plant, 0=no damage to plant
Description: (§1) Seeds of a variety of test species are sown in standard soil in pots. After cultivation for one day (pre-emergence) or after 8 days cultivation (post-emergence) under controlled conditions in a glasshouse (at 24/16° C., day/night; 14 hours light; 65% humidity), the plants are sprayed with an aqueous spray solution derived from the formulation of the technical active ingredient in acetone/water (50:50) solution containing 0.5% Tween 20 (polyoxyethelyene sorbitan monolaurate, CAS RN 9005-64-5). The test plants are then grown in a glasshouse under controlled conditions in a glasshouse (at 24/16° C., day/night; 14 hours light; 65% humidity) and watered twice daily. After 13 days for pre and post-emergence, the test is evaluated (100=total damage to plant; 0=no damage to plant). Test plants: • Lolium perenne (LOLPE), Alopecurus myosuroides (ALOMY), Echinochloa crus-galli (ECHCG), Avena fatua (AVEFA)

Avena fatua (AVEFA) [2] = assay: Pre-emergence herbicidal activity, glasshouse; conditions: pre-emergence spray after one day cultivation; rate 250 g/ha; evaluated after 13 days; 100=total damage to plant, 0=no damage to plant
Description: as §1

Lolium perenne (LOLPE) [3] = assay: Pre-emergence herbicidal activity, glasshouse; conditions: pre-emergence spray after one day cultivation; rate 250 g/ha; evaluated after 13 days; 100=total damage to plant, 0=no damage to plant
Description: as §1

[4] = tested on: Alopecurus myosuroides (ALOMY); assay: Pre-emergence herbicidal activity, glasshouse; conditions: pre-emergence spray after one day cultivation; rate 250 g/ha; evaluated after 13 days; 100=total damage to plant, 0=no damage to plant
Description: as §1

[5] = tested on: Echinochloa crus-galli (ECHCG); assay: Post-emergence herbicidal activity, glasshouse; conditions: post-emergence spray after 8 days cultivation; rate 250 g/ha; evaluated after 13 days; 100=total damage to plant, 0=no damage to plant
Description: as §1

Avena fatua (AVEFA) [6] = assay: Post-emergence herbicidal activity, glasshouse; conditions: post-emergence spray after 8 days cultivation; rate 250 g/ha; evaluated after 13 days; 100=total damage to plant, 0=no damage to plant
Description: as §1

Lolium perenne (LOLPE) [7] = assay: Post-emergence herbicidal activity, glasshouse; conditions: post-emergence spray after 8 days cultivation; rate 250 g/ha; evaluated after 13 days; 100=total damage to plant, 0=no damage to plant
Description: as §1

[8] = tested on: Alopecurus myosuroides (ALOMY); assay: Post-emergence herbicidal activity, glasshouse; conditions: post-emergence spray after 8 days cultivation; rate 250 g/ha; evaluated after 13 days; 100=total damage to plant, 0=no damage to plant
Description: as §1

Compound	Pre-Emergence Activity ECHCG [1]	Pre-Emergence Activity AVEFA (Avena fatua (AVEFA) [2])	Pre-Emergence Activity LOLPE (Lolium perenne (LOLPE) [3])	Pre-Emergence Activity ALOMY [4]	Post-Emergence Activity ECHCG [5]	Post-Emergence Activity AVEFA (Avena fatua (AVEFA) [6])	Post-Emergence Activity LOLPE (Lolium perenne (LOLPE) [7])	Post-Emergence Activity ALOMY [8]
Cc1cc(C)c(C2=C(OC(=O)C(C)(C)C)C/C(=C\c3ccoc3)C2=O)c(C)c1 [Compound P2, 2,2-Dimethyl-propionic acid 4-[1-furan-3-yl-meth-(E)-ylidene]-3-oxo-2-(2,4,6-trimethyl-phenyl)-cyclopent-1-enyl ester]	0	0	90	0				
Cc1cc(C)c(C2C(=O)CC(Cc3cc(C)on3)C2=O)c(C)c1 (centres unmarked) [Compound T3, 4-(5-methyl-isoxazol-3-ylmethyl)-2-(2,4,6-trimethyl-phenyl)-cyclopentane-1,3-dione]	80	70	100	100	80	80	90	90
Cc1cc(C)c(C2C(=O)CC(Cc3ccoc3)C2=O)c(C)c1 (centres unmarked) [Compound T2, 4-Furan-3-ylmethyl-2-(2,4,6-trimethyl-phenyl)-cyclopentane-1,3-dione]	0	20	80	30	80	20	80	60
COC1=C(c2c(C)cc(C)cc2C)C(=O)C(C(O)c2cc(C)c(C)o2)C1 (centres unmarked) [Compound P1]	0	0	40	0				
Cc1cc(C)c(C2C(=O)C/C(=C\c3ccco3)C2=O)c(C)c1 (centres unmarked) [Compound T8]					30	0	30	10
Cc1cc(C)c(C2C(=O)CC(Cc3ccc(C)o3)C2=O)c(C)c1 (centres unmarked) [Compound T4]					30	20	50	40
